For test [1], the system named is P. falciparum gametocytes. The test is described as follows: microsphiltration (spleen-mimetic microfilters) retention / stiffening of mature gametocytes, dose-response. To be noted: for IC50: Plasmodium falciparum, mature gametocytes, retention in microsphiltration, read-out: stiffening effect IC50; for activity by readout (readout 1 male and female gametocytes staining vs readout 2 specific female gametocytes staining): dose-response curves, data not shown. In kind it is cell-based, Plasmodium falciparum. From the text: FIG. 1. Screening progression cascade. ReFrame library (12,805 compounds), Kinase Inhibitors Box (350 compounds) and Pathogen Box (400 compounds) were screened with “microsphiltration” against P. falciparum gametocytes. Hits from primary screening were further selected by dose-response analysis (DRA). Confirmed 82 hits were divided in 7 groups, based on their activity and molecular target (data not shown). Hits repartition is shown in parenthesis, along with the name of one representative hit for each group. A score was assigned to each DRA confirmed hit, based on route of administration, safety in human clinical trials, pharmacokinetic and affordability for developing countries, leading to final selection of 3 hits for further in vitro and in vivo confirmation experiments.
FIG. 2. Representative single 384-wells plate scatterplots of primary screening. Each well of a screening plate is loaded with pre-spotted compounds while two columns are left for controls. They are represented as follows: empty circles for non-selected compounds and black circles for hits (352 wells), black squares for negative control (DMSO 0.05%, 16 wells), black squares for main positive control (NITD609 0.5 μM, 8 wells), light black empty squares for retention positive control (Calyculin A 75 nM, 6 wells), black squares for killing control (Gentian Violet 50 μM, 2 wells). For each well, killing and retention values are calculated and distributed in a “xy” graph. Two graphs are made for each plate: one using male and female gametocytes imaging (“readout 1”, left panel) and one using specific female gametocytes imaging (“readout 2”, right panel). For each graph, a linear regression (solid line) is tracked with 95% confidence interval (dashed lines). The compounds beyond the upper confidence interval in both readouts are identified as hits. A) Plate number 15 of ReFRAME library: 8 hits with readout 1, 11 hits with readout 2, 4 hits (shared between the two readouts) finally identified. B) Plate number 9 of ReFRAME library: 7 hits with readout 1, 11 hits with readout 2, 5 hits finally individuated, including NITD609 (highlighted with an arrow). In few cases, compounds with only killing effect were added to hitlist.
FIG. 4. Examples of dose-response curves (DRCs) of confirmed hits. Every hit from primary screening has been re-tested in duplicate (ReFrame library) and in triplicate (Kinase Inhibitors and Pathogen Box libraries) for dose-response, starting from 5 (10 μM for ReFrame hits) to 5 nM. For each of them, a DRC for killing and retention was tracked and IC50 was calculated (one for readout 1, male and female gametocytes staining, one for readout 2, specific female gametocytes staining). Error bars denote the standard deviation. The first curve is referred to killing effect and the second curve to retention effect normalized on DMSO negative control. Chemical structure of the compound is represented for each DRC. Hits and readouts have been selected among the ones with lowest variability, with the addition of TD-6450 and L-THP due to their high priority. […] Readout 2 has been selected for all of them except APPCL. […] Readout 2 used for all of them. […] Readout 2 used for all of them except TD-6450.

In test [2] the test system is P. falciparum gametocytes. The experiment in a line: killing of mature gametocytes in the microsphiltration screen, dose-response. The test is classed as cell-based. To be noted: Plasmodium falciparum, read-out: killing effect IC50. From the text:
FIG. 1. Screening progression cascade. ReFrame library (12,805 compounds), Kinase Inhibitors Box (350 compounds) and Pathogen Box (400 compounds) were screened with “microsphiltration” against P. falciparum gametocytes. Hits from primary screening were further selected by dose-response analysis (DRA). Confirmed 82 hits were divided in 7 groups, based on their activity and molecular target (data not shown). Hits repartition is shown in parenthesis, along with the name of one representative hit for each group. […]
FIG. 2. […] For each well, killing and retention values are calculated and distributed in a “xy” graph. Two graphs are made for each plate: one using male and female gametocytes imaging (“readout 1”, left panel) and one using specific female gametocytes imaging (“readout 2”, right panel). […] The compounds beyond the upper confidence interval in both readouts are identified as hits. A) Plate number 15 of ReFRAME library: 8 hits with readout 1, 11 hits with readout 2, 4 hits (shared between the two readouts) finally identified. B) Plate number 9 of ReFRAME library: 7 hits with readout 1, 11 hits with readout 2, 5 hits finally individuated, including NITD609 (highlighted with an arrow). […]
FIG. 4. […] For each of them, a DRC for killing and retention was tracked and IC50 was calculated (one for readout 1, male and female gametocytes staining, one for readout 2, specific female gametocytes staining). […]

In general, IC50 refers to the concentration that inhibits the measured activity by half. On to `C[C@H]1Cc2c([nH]c3cc(Cl)c(F)cc23)[C@@]2(N1)C(=O)Nc1ccc(Cl)cc12` [NITD609, (1R,3S)-5′,7-Dichloro-6-fluoro-3-methyl-spiro[2,3,4,9-tetrahydropyrido[3,4-b]indole-1,3′-indoline]-2′-one], for which the IC50 came out at 50 nM in test [1] and 100 nM in test [2].
Turning to `CC(C)(CN)c1nc(-c2ccc(Cl)c(O)c2)c(-c2ccnc(N)n2)[nH]1` [MMV030734], in test [1], the “activity by readout (readout 1 male and female gametocytes staining vs readout 2 specific female gametocytes staining)” value is recorded as “specifically actives on readout 2”.
With `O=C(NCCN1CCCC1)c1cc(NCCCCN2CCC(F)(F)CC2)nc2ccc(Cl)cc12` [MMV667494], in test [1], the “activity by readout (readout 1 male and female gametocytes staining vs readout 2 specific female gametocytes staining)” value was “specifically actives on readout 2”.
`COc1cc2c(cc1OC)[C@@H]1Cc3ccc(OC)c(OC)c3CN1CC2` [L-THP, (13aS)-2,3,9,10-tetramethoxy-6,8,13,13a-tetrahydro-5H-isoquinolino[2,1-b]isoquinoline]: the IC50 in test [1] is 5 nM.
The same measure, in the same setting: as for `CNC(=O)N1C[C@@H](C)N(c2ccc(C(=O)Nc3ccc(-c4ccc(-c5c[nH]c([C@@H]6CCCN6C(=O)[C@@H](NC(=O)OC)C(C)C)n5)cc4)c(OC(F)(F)F)c3)cn2)C[C@@H]1C` [TD-6450, carbamic acid, N-[(1S)-1-[[(2S)-2-[5-[4′-[[[6-[(2R,5S)-2,5-dimethyl-4-[(methylamino)carbonyl]-1-piperazinyl]-3-pyridinyl]carbonyl]amino]-2′-(trifluoromethoxy) [1,1′-biphenyl]-4-yl]-1H-imidazol-2-yl]-1-pyrrolidinyl]carbonyl]-2-methylpropyl]-, methyl ester], the figure is 600 nM.

Values taken from patent US20240024299A1, “USE OF DRUGS THAT STIFFEN MATURE GAMETOCYTES FOR BLOCKING TRANSMISSION OF PLASMODIUM PARASITES” (INSERM (INSTITUT NATIONAL DE LA SANTÉ ET DE LA RECHERCHE …, priority 2020, published 2024).
